Entries after “also recorded” stand apart in the source; their conditions may differ.
These substances were tested on bacteria, fungi, and/or yeasts. Conditions: microorganism(s) listed as target(s) of the targeting peptide; wrapped target lists given cell by cell.
Type: binding

Substance	Target(s)
1T-271 (FLIQKFLLIKTFPPYRKKYVVIVSQTGTA)	A. naeslundii, F. nucleatum, P. gingivalis,; also recorded: S. epidermidis, S. gordonii,; also recorded: S. mitis, S. mutans, S. oralis,; also recorded: S. salivarious, S. sanguinis
PF-048 (LYFAFKKYQERVNQAPNIEY)	S. epidermidis, M. luteus, E. coli,; also recorded: MRSA, C. jeikeium, C. jejuni
PF-045 (LDINDYRSTY)	S. epidermidis, E. coli, E. faecalis,; also recorded: C. jejuni
PF-125 (YVVGALVILAVAGLIYSMLRKA)	S. epidermidis, M. luteus, P. mirabilis,; also recorded: E. coli, P. aeruginosa,; also recorded: C. albicans, MRSA, S. pneumoniae,; also recorded: E. faecalis, C. jejuni
PF-166 (SKAVSRKRSI)	E. coli, C. jeikeium
PF-141 (VVRRFQGM)	C. albicans hyphae; also recorded: S. epidermidis, M. luteus, C. albicans,; also recorded: MRSA, C. jeikeium
Rv1535 (DPLVDGAARLLSIPLRHLYAALWRVGLLEVQA)	C. albicans
PF-068 (SHLINNFGLSVINPSTPICLNFSPVFNLLTVYGITCN)	S. epidermidis, M. luteus, P. mirabilis,; also recorded: E. coli, P. aeruginosa,; also recorded: C. albicans, MRSA, S. pneumoniae,; also recorded: E. faecalis, C. jeikeium
1T-268 (PITPKKEKCGLGTYAPKNPVFSKSRV)	F. nucleatum, S. mutans, S. oralis,; also recorded: S. sanguinis
PF-038 (MAYKDEGKETKFAVKGYKD)	M. luteus
1T-304 (STAGEASRRTASEASRRTAAKLRG)	P. gingivalis
PF-157 (HTAVVWLAGVSGCVALSHCEPA)	S. epidermidis, M. luteus, P. mirabilis,; also recorded: E. coli, P. aeruginosa,; also recorded: C. albicans, MRSA, S. pneumoniae,; also recorded: E. faecalis, C. jeikeium,; also recorded: C. jejuni
PF-062 (MKKKRINNDILGRMIYSSSIDKRNLYNLKYYE)	S. epidermidis, M. luteus, E. coli,; also recorded: P. aeruginosa, MRSA, S. pneumoniae,; also recorded: E. faecalis, C. jeikeium
PF-076 (LYQYELLSKEEYLKCTLIINQRRNEQK)	S. epidermidis, M. luteus, E. coli,; also recorded: P. aeruginosa, C. albicans,; also recorded: MRSA, S. pneumoniae, E. faecalis,; also recorded: C. jeikeium, C. jejuni
1T-264 (LEGKFYMAEDFDKTPECFKDYV)	S. sanguinis
PF-017 (ESIIE)	E. coli
PF-127 (MLRYLSLFAVGLATGYAWGWIDGLAASLAV)	S. epidermidis, M. luteus, E. coli,; also recorded: P. aeruginosa, C. albicans,; also recorded: MRSA, S. pneumoniae, E. faecalis

Substance	Target(s)
PF-153 (GILARADCSQIA)	M. luteus, P. mirabilis, E. coli, and MRSA
PF-171 (TQVTLCRTW)	S. epidermidis, E. coli, P. aeruginosa,; also recorded: S. pneumoniae
TT-309 (EPLPLTKYDKKDTEMKKVFKEILAGKVGYEKEEE)	F. nucleatum
PF-621 (PPSSFLV)	yeast and hyphal forms
1T-303 (LDYENMDCKKRIRI)	A. naeslundii, F. nucleatum, P. gingivalis,; also recorded: S. gordonii, S. mitis,; also recorded: S. mutans, S. oralis, S. salivarious,; also recorded: S. sanguinis
1T-285 (FFPYYLADFYKQLKFLNEYQTKNKDKVVEFK)	A. naeslundii, F. nucleatum, P. gingivalis,; also recorded: S. gordonii, S. mitis,; also recorded: S. mutans, S. oralis, S. salivarious,; also recorded: S. sanguinis
1T-295 (KYKLKKIIL)	S. mitis, S. salivarious, S. sanguinis
1T-275 (QVLKNFSISRRYKINNPFFKILLFIQLRTL)	A. naeslundii, F. nucleatum, P. gingivalis,; also recorded: T. denticola, S. epidermidis,; also recorded: S. gordonii, S. mitis,; also recorded: S. mutans, S. oralis, S. salivarious,; also recorded: S. sanguinis
PF-143 (LSPRPIIVSRRSRADNNNDWSR)	S. epidermidis, MRSA, C. jeikeium
PF-124 (MADGQIAAIAKLHGVPVATRNIRHFQSFGVELINPWSG)	S. epidermidis, M. luteus, P. mirabilis,; also recorded: E. coli, P. aeruginosa,; also recorded: C. albicans, MRSA, E. faecalis,; also recorded: C. jejuni
1T-301 (SKLPRVLDASLKL)	F. nucleatum, S. gordonii, S. sanguinis
Rv2561 (QHQCPGMRPAPADAPEVPHAARADQKRPSLRL)	C. albicans
1T-294 (YDKIADGVFKIGKRGVL)	T. denticola
PF-067 (DLIVKVHICFVVKTASGYCYLNKREAQAAI)	S. epidermidis, M. luteus, P. mirabilis,; also recorded: E. coli, P. aeruginosa,; also recorded: C. albicans, MRSA, S. pneumoniae,; also recorded: E. faecalis, C. jeikeium,; also recorded: C. jejuni
1T-267 (RIKEERKNRSYKFFIWRLFDEKTGFI)	A. naeslundii, F. nucleatum, P. gingivalis,; also recorded: T. denticola, S. mitis,; also recorded: S. mutans, S. oralis, S. sanguinis
1T-302 (IIIILPKIYLVCKTV)	A. naeslundii, P. gingivalis, S. epidermidis,; also recorded: S. gordonii, S. mitis,; also recorded: S. mutans, S. oralis, S. salivarious,; also recorded: S. sanguinis

Same assay, conditions: microorganism(s) that the targeting peptide binds, as listed in Table 2

Substance	Target(s)
PF-C057 (YFWWYWVQDCIPYKNNEVWLELSNNMK)	A. naeslundii, F. nucleatum, P. gingivalis,; also recorded: S. mutans
PF-784 (MAMTTVDNIVGLVIAVALMAFLFAALLFPEKF)	Mycobacteria spp.
PF-C088 (DIANNILNSVSERLIIA)	A. naeslundii, F. nucleatum, P. gingivalis,; also recorded: S. mutans, T. denticola
PF-C135 (KNTHAYLRVLRLSSLILSYQASVYPLFAYLCQQKDY)	A. naeslundii, F. nucleatum, P. gingivalis,; also recorded: S. mutans
PF-C134 (NELMKYPATLTATATTPGIKYSHLCSVCL)	A. naeslundii, F. nucleatum, P. gingivalis,; also recorded: S. mutans, T. denticola
PF-C181 (KMRAGQVVFIYKLILVLLFYVLQKLFDLKKGCF)	P. gingivalis
PF-V (KFINGVLSQFVLERK)	S. mutans
PF-797 (WYYFDNNGYM)	S. mutans
PF-C055 (YNLSIYIYFLHTITIAGLITLPFII)	A. naeslundii, F. nucleatum, P. gingivalis,; also recorded: S. mutans
PF-S026 (TELKYNGEEYLLLTQRDILAVIEK)	S. epidermidis, MRSA, C. jeikeium
PF-C093 (EKLGTMV)	A. naeslundii, F. nucleatum, S. mutans
PF-U (TFFRLFNRSFTQALGK)	S. mutans
PF-Y (FIKHFIHRF)	S. mutans
PF-C065 (DEERYSDSYFLKEKVFYLILALFLILFHQKYLYFLEIITI)	A. naeslundii, F. nucleatum, P. gingivalis,; also recorded: S. mutans

Same assay, conditions: microorganism(s) the targeting peptide binds, as listed in Table 2

Substance	Target(s)
1T-219 (RNINVSATFITEKSLV)	S. sanguinis
1T-26 (LTILPTTFFAIIVPILAVAFIAYSGFKIKGIVEHKDQW)	S. mutans, S. aureus, S. epidermidis,; also recorded: C. jeikeium, C. xerosis,; also recorded: C. striatum, P. aeruginosa
1T-102 (WKRLWPARILAGHSRRRMRWMVVWRYFAAT)	A. naeslundii, F. nucleatum, P. gingivalis,; also recorded: S. epidermidis, S. gordonii,; also recorded: S. mitis, S. mutans, S. oralis,; also recorded: S. salivarious, S. sanguinis
1T-19 (PGAFRNPQMPRG)	S. aureus, S. epidermidis, P. aeruginosa
1T-237 (EDPVPNHFTLRRNKKEKPSKS)	S. sanguinis
1T-193 (LMIFDKHANLKYKYGNRSFGVEAIM)	S. sanguinis
1T-24 (EEAEEKLAEVSQAVKRLVR)	P. aeruginosa
1T-25 (VGLDVSVLVLFFGLQLLSVLLGAMIR)	S. aureus, S. epidermidis, C. xerosis,; also recorded: C. striatum, P. aeruginosa
1T-31 (NATGTDIGEVTLTLGRFS)	S. mutans, P. aeruginosa
1T-195 (AASGFTYCASNGVWHPY)	S. mutans
1T-116 (MILHRRRDR)	A. naeslundii, P. gingivalis, S. epidermidis,; also recorded: S. gordonii, S. mitis,; also recorded: S. mutans, S. oralis, S. salivarious,; also recorded: S. sanguinis
1T-79 (FGTPWSITNFWKKNFNDRPDFDSDRRRY)	S. pneumoniae
1T-41 (KRGSKIVIAIAVVLIVLAGVWVW)	S. mutans, S. aureus, S. epidermidis,; also recorded: C. jeikeium, C. striatum,; also recorded: P. aeruginosa
1T-101 (RLRVGRATDLPLTSFAVGVVRNLPDAPAH)	A. naeslundii, P. gingivalis, S. epidermidis,; also recorded: S. gordonii, S. mitis,; also recorded: S. mutans, S. oralis, S. sanguinis
1T-126 (QGLARPVLRRIPL)	S. gordonii, S. mitis, S. mutans
1T-56 (LALIGAGIWMIRKG)	C. xerosis, P. aeruginosa
1T-48 (KLQVHHGRATHTLLLQPPLCAPGTIR)	S. aureus, S. epidermidis, C. jeikeium,; also recorded: C. xerosis, C. striatum,; also recorded: P. aeruginosa
1T-107 (SPVPRFTAVGGVSRGSP)	A. naeslundii, S. epidermidis, S. gordonii,; also recorded: S. mitis, S. mutans, S. oralis,; also recorded: S. salivarious, S. sanguinis
1T-128 (SGSAIRMLEIATKMLKR)	A. naeslundii, P. gingivalis, S. epidermidis,; also recorded: S. gordonii, S. mitis,; also recorded: S. mutans, S. oralis, S. salivarious,; also recorded: S. sanguinis
1T-96 (VAGACAQPFGGQ)	S. gordonii, S. mitis, S. mutans,; also recorded: S. oralis, S. sanguinis
1T-9 (WAWAESPRCVSTRSNIHALAFRVEVAALT)	M. xanthus
1T-64 (QTVHHIHMHVLGQRQMHWPPG)	S. aureus, S. epidermidis, C. jeikeium,; also recorded: C. xerosis, C. striatum,; also recorded: P. aeruginosa
1T-172 (FEGLKNLLGDDII)	A. naeslundii, F. nucleatum, P. gingivalis,; also recorded: S. epidermidis, S. gordonii,; also recorded: S. mitis, S. mutans, S. oralis,; also recorded: S. salivarious, S. sanguinis
1T-188 (HRKDVYKK)	S. sanguinis
1T-192 (ILVLLALQVELDSKFQY)	S. sanguinis
1T-115 (LLIERFSNHH)	A. naeslundii, F. nucleatum, P. gingivalis,; also recorded: S. epidermidis, S. gordonii,; also recorded: S. mitis, S. mutans, S. oralis,; also recorded: S. salivarious, S. sanguinis
1T-82 (FGVGVGIALFMAGYAIGKDLRKKFGKSC)	S. pneumoniae
1T-138 (YPNEYCIFLENLSLEELKEIKAINGETLNLEEIINERKNLKD)	A. naeslundii, F. nucleatum, P. gingivalis,; also recorded: S. epidermidis, S. gordonii,; also recorded: S. mitis, S. mutans, S. oralis,; also recorded: S. salivarious, S. sanguinis
